Where “and” joins values, the source holds several entries; their conditions need not be identical. Equal entries are not always repeated. Where two headings read alike, the source gives them in different places.
Tests used:
[1] = test system: normal flora found in the milks; assay: Standard plate counts of non-probiotic microorganisms in Acidophilus milks; assay type: cell-based
[2] = test system: Lactobacillus delbrueckii (Lactobacillus bulgaricus); assay: Probiotic growth in media supplemented with MSM; assay type: cell-based; set-up: unit not given here
Excerpt: Plates were then counted. […] Data are presented in Cfu/mL.

[3] = test system: Swine-like H1N1 Influenza A virus strain A/California/04/2009; assay type: cell-based
[4] = test system: Lactobacillus acidophilus milk; assay: Growth in simulated gastric acid supplemented with MSM; details: for Log Growth of L. acidophilus in milk average / Log Growth of L. acidophilus in milk in duplicate: simulated gastric acid

What does the source list for Methylsulfonylmethane [MSM]?
growth of normal flora (standard plate counts) ([1]; 5.0% MSM, throughout the study): did not allow any significant growth; Growth of non-probiotic microorganisms in Acidophilus Milk ([1]; A/B milk […] MSM, Day 0): 370 cfu per mL; Growth of non-probiotic microorganisms in Acidophilus Milk ([1]; A/B milk […] MSM, Day 3): 480 cfu per mL; Growth of non-probiotic microorganisms in Acidophilus Milk ([1]; A/B milk […] MSM, Day 7): 570 cfu per mL; Growth of non-probiotic microorganisms in Acidophilus Milk ([1]; A/B milk […] MSM, Day 14): 1460 cfu per mL; Growth of non-probiotic microorganisms in Acidophilus Milk ([1]; A/B milk […] MSM, Day 21): 3500 cfu per mL; Growth of non-probiotic microorganisms in Acidophilus Milk ([1]; A/B milk […] MSM, Day 28): 110000 cfu per mL; Growth of non-probiotic microorganisms in Acidophilus Milk ([1]; Acidophilus milk 0.50% MSM, Day 0, duplicates): 20 cfu per mL and 30 cfu per mL; Growth of non-probiotic microorganisms in Acidophilus Milk ([1]; Acidophilus milk 0.50% MSM, Day 3, duplicates): 10 cfu per mL; Growth of non-probiotic microorganisms in Acidophilus Milk ([1]; Acidophilus milk 0.50% MSM, Day 7, duplicates): 10 cfu per mL; Growth of non-probiotic microorganisms in Acidophilus Milk ([1]; Acidophilus milk 0.50% MSM, Day 14, duplicates): 20 cfu per mL; Growth of non-probiotic microorganisms in Acidophilus Milk ([1]; Acidophilus milk 0.50% MSM, Day 21, duplicates): 20 cfu per mL and 40 cfu per mL; Growth of non-probiotic microorganisms in Acidophilus Milk ([1]; Acidophilus milk 5% MSM, Day 0, duplicates): 10 cfu per mL and 20 cfu per mL; Growth of non-probiotic microorganisms in Acidophilus Milk ([1]; Acidophilus milk 5% MSM, Day 3, duplicates): 10 cfu per mL; Growth of non-probiotic microorganisms in Acidophilus Milk ([1]; Acidophilus milk 5% MSM, Day 7, duplicates): 10 cfu per mL and 20 cfu per mL; Growth of non-probiotic microorganisms in Acidophilus Milk ([1]; Acidophilus milk 5% MSM, Day 14, duplicates): 20 cfu per mL and 10 cfu per mL; Growth of non-probiotic microorganisms in Acidophilus Milk ([1]; Acidophilus milk 5% MSM, Day 21, duplicates): 20 cfu per mL and 10 cfu per mL; Growth of non-probiotic microorganisms in Acidophilus Milk ([1]; Acidophilus milk 5% MSM, Day 28, duplicates): 10 cfu per mL; Growth of non-probiotic microorganisms in Acidophilus Milk ([1]; Acidophilus milk […] MSM, Day 0, duplicates): 10 cfu per mL; Growth of non-probiotic microorganisms in Acidophilus Milk ([1]; Acidophilus milk […] MSM, Day 14, duplicates): <10 cfu per mL; Growth of Lactobacillus bulgaricus ([2]; 0.125% MSM, 0 h): 2.29; Growth of Lactobacillus bulgaricus ([2]; 0.125% MSM, 8 h): 4.15; Growth of Lactobacillus bulgaricus ([2]; 0.125% MSM, 16 h): 8.22; Growth of Lactobacillus bulgaricus ([2]; 0.125% MSM, 24 h): 9.04; Growth of Lactobacillus bulgaricus ([2]; 0.125% MSM, 32 h): 8.55; Growth of Lactobacillus bulgaricus ([2]; 0.125% MSM, 40 h): 9.29; Growth of Lactobacillus bulgaricus ([2]; 0.125% MSM, 48 h): 10.94; Growth of Lactobacillus bulgaricus ([2]; 0.125% MSM, 56 h): 8.00; Growth of Lactobacillus bulgaricus ([2]; 0.125% MSM, 64 h): 8.59; Growth of Lactobacillus bulgaricus ([2]; 0.125% MSM, 72 h): 6.74; Growth of Lactobacillus bulgaricus ([2]; 0.2% MSM, 0 h): 2.25; Growth of Lactobacillus bulgaricus ([2]; 0.2% MSM, 8 h): 4.08; Growth of Lactobacillus bulgaricus ([2]; 0.2% MSM, 16 h): 8.34; Growth of Lactobacillus bulgaricus ([2]; 0.2% MSM, 24 h): 9.10; Growth of Lactobacillus bulgaricus ([2]; 0.2% MSM, 32 h): 9.60; Growth of Lactobacillus bulgaricus ([2]; 0.2% MSM, 40 h): 9.11; Growth of Lactobacillus bulgaricus ([2]; 0.2% MSM, 48 h): 11.07; Growth of Lactobacillus bulgaricus ([2]; 0.2% MSM, 56 h): 8.79; Growth of Lactobacillus bulgaricus ([2]; 0.2% MSM, 64 h): 8.79; Growth of Lactobacillus bulgaricus ([2]; 0.2% MSM, 72 h): 6.72; Growth of Lactobacillus bulgaricus ([2]; 0.50% MSM, 0 h): 2.23; Growth of Lactobacillus bulgaricus ([2]; 0.50% MSM, 8 h): 4.42; Growth of Lactobacillus bulgaricus ([2]; 0.50% MSM, 16 h): 8.28; Growth of Lactobacillus bulgaricus ([2]; 0.50% MSM, 24 h): 9.05; Growth of Lactobacillus bulgaricus ([2]; 0.50% MSM, 32 h): 9.54; Growth of Lactobacillus bulgaricus ([2]; 0.50% MSM, 40 h): 9.40; Growth of Lactobacillus bulgaricus ([2]; 0.50% MSM, 48 h): 10.82; Growth of Lactobacillus bulgaricus ([2]; 0.50% MSM, 56 h): 9.14; Growth of Lactobacillus bulgaricus ([2]; 0.50% MSM, 64 h): 8.80; Growth of Lactobacillus bulgaricus ([2]; 0.50% MSM, 72 h): 6.72; Growth of Lactobacillus bulgaricus ([2]; 1% MSM, 0 h): 2.29; Growth of Lactobacillus bulgaricus ([2]; 1% MSM, 8 h): 4.83; Growth of Lactobacillus bulgaricus ([2]; 1% MSM, 16 h): 8.36; Growth of Lactobacillus bulgaricus ([2]; 1% MSM, 24 h): 9.03; Growth of Lactobacillus bulgaricus ([2]; 1% MSM, 32 h): 9.31; Growth of Lactobacillus bulgaricus ([2]; 1% MSM, 40 h): 9.34; Growth of Lactobacillus bulgaricus ([2]; 1% MSM, 48 h): 11.23; Growth of Lactobacillus bulgaricus ([2]; 1% MSM, 56 h): 8.11; Growth of Lactobacillus bulgaricus ([2]; 1% MSM, 64 h): 6.50; Growth of Lactobacillus bulgaricus ([2]; 1% MSM, 72 h): 6.45; Growth of Lactobacillus bulgaricus ([2]; 5% MSM, 0 h): 2.19; Growth of Lactobacillus bulgaricus ([2]; 5% MSM, 8 h): 3.28; Growth of Lactobacillus bulgaricus ([2]; 5% MSM, 16 h): 7.39; Growth of Lactobacillus bulgaricus ([2]; 5% MSM, 24 h): 8.50; Growth of Lactobacillus bulgaricus ([2]; 5% MSM, 32 h): 9.29; Growth of Lactobacillus bulgaricus ([2]; 5% MSM, 40 h): 9.37; Growth of Lactobacillus bulgaricus ([2]; 5% MSM, 48 h): 10.92; Growth of Lactobacillus bulgaricus ([2]; 5% MSM, 56 h): 10.07; Growth of Lactobacillus bulgaricus ([2]; 5% MSM, 64 h): 10.96; Growth of Lactobacillus bulgaricus ([2]; 5% MSM, 72 h): 8.62; Growth of Lactobacillus bulgaricus ([2]; […] MSM, 0 h): 2.26; Growth of Lactobacillus bulgaricus ([2]; […] MSM, 8 h): 4.57; Growth of Lactobacillus bulgaricus ([2]; […] MSM, 16 h): 8.09; Growth of Lactobacillus bulgaricus ([2]; […] MSM, 24 h): 9.01; Growth of Lactobacillus bulgaricus ([2]; […] MSM, 32 h): 9.15; Growth of Lactobacillus bulgaricus ([2]; […] MSM, 40 h): 9.27; Growth of Lactobacillus bulgaricus ([2]; […] MSM, 48 h): 11.37; Growth of Lactobacillus bulgaricus ([2]; […] MSM, 56 h): 8.23; Growth of Lactobacillus bulgaricus ([2]; […] MSM, 64 h): 8.75; Growth of Lactobacillus bulgaricus ([2]; […] MSM, 72 h): 6.51; Average Log Stimulation [3]: 0.17log10; Average Percent Stimulation [3]: 32.39%; Average TCID50 [3]: 3.67log10 and 4.42log10 and 4.67log10 and 5.00log10 and 4.58log10 and 4.17log10; CPE at dilution −6 [3]: 0000; CPE at dilution −7 [3]: 0000; Log Stimulation [3]: 0.17log10; Percent Stimulation [3]: 32.39%; TCID50 [3]: 3.75log10 and 3.50log10 and 4.00log10 and 4.50log10 and 4.25log10 and 4.75log10 and 5.00log10; average percent reduction [3]: 93.08% and 90.00% and 61.10% and 78.12%; average log10 reduction ([3]; 1% MSM): 0.25 log10; average percent reduction ([3]; 1% MSM): 43.77%; average log10 reduction ([3]; 2% MSM): 0.41 log10; average percent reduction ([3]; 2% MSM): 61.10%; average log10 reduction ([3]; 3% MSM): 0.00 log10; average percent reduction ([3]; 3% MSM): 00.00%; average log10 reduction ([3]; 4% MSM): 0.16 log10; average percent reduction ([3]; 4% MSM): 30.82%; Response, % reduction ([3]; Dose 5.312 mM (log dose 0.7252581)): 91.680% and 53.230% and 73.700%; Response, % reduction ([3]; Dose 31.871 mM (log dose 1.503396)): 0.000%; Response, % reduction ([3]; Dose 53.118 mM (log dose 1.725242)): 53.230% and 73.700%; HillSlope, best-fit value ([3]; log(inhibitor) vs. normalized response, variable slope): 0.2135; LogIC50, best-fit value ([3]; log(inhibitor) vs. normalized response, variable slope, dose in mM): 0.7087; Log Growth of L. acidophilus in milk average ([4]; 5% MSM, 0 hours): 0.41 logs; Log Growth of L. acidophilus in milk average ([4]; 5% MSM, 3 hours): 0.41 logs; Log Growth of L. acidophilus in milk average ([4]; 5% MSM, 6 hours): 0.91 logs; Log Growth of L. acidophilus in milk in duplicate ([4]; 5% MSM, 6 hours): 0.82 logs and 1 logs; Log Growth of L. acidophilus in milk average ([4]; 5% MSM, 9 hours): 0.52 logs; Log Growth of L. acidophilus in milk in duplicate ([4]; 5% MSM, 9 hours): 0.52 logs; Log Growth of L. acidophilus in milk average ([4]; 5% MSM, 12 hours): 1.10 logs; Log Growth of L. acidophilus in milk average ([4]; 5% MSM, 15 hours): 1.43 logs; Log Growth of L. acidophilus in milk in duplicate ([4]; 5% MSM, 15 hours): 1.43 logs; Log Growth of L. acidophilus in milk average ([4]; 5% MSM, 24 hours): 1.66 logs; Log Growth of L. acidophilus in milk in duplicate ([4]; 5% MSM, 24 hours): 1.67 logs and 1.64 logs; Log Growth of L. acidophilus in milk average ([4]; 5% MSM, 48 hours): 1.33 logs; Log Growth of L. acidophilus in milk in duplicate ([4]; 5% MSM, 48 hours): 1.22 logs and 1.43 logs; decrease in growth ([4]; 5.0% MSM, Hour 48): 0.33 logs; increase in growth ([4]; 5.0% MSM, at 24 hours): 0.23 logs; Log Growth of L. acidophilus in milk average ([4]; […] MSM, 0 hours): 0 logs; Log Growth of L. acidophilus in milk in duplicate ([4]; […] MSM, 0 hours): 0 logs; Log Growth of L. acidophilus in milk average ([4]; […] MSM, 9 hours): 0.41 logs; decrease in growth ([4]; […] MSM, Hour 48): 0.38 logs; decrease in growth ([4]; […] MSM, at 24 hours): 0.11 logs; increase in growth ([4]; printed […] MSM, at 24 hours): 0.30 logs
